Data: patent US8697385B1, “Protein controlling synthesis of collagen and associated methods” (Florida State University Research Foundation, Inc., priority 2009, dated 2014)

Key:
polysomes = assay: Fractionation of polysomes on sucrose gradients; type: cell-based, human
Procedure: (§1) ML-7, blebbistatin, cytochalasin B, puromycin, and cycloheximide were purchased from Sigma. ML-7 was used at 40 μM, blebbistatin was used at 100 μM, and cytochalasin B was used at 20 μM. Cells were incubated with the drugs for 16 h before analysis. Puromycin (200 μg/ml) and cycloheximide (100 μg/ml) were added to the cells for 2 h. Human lung fibroblasts have been described previously.16 Scleroderma fibroblasts were purchased from the European Collection of Cell Cultures (cell line BM0070) and derived from the skin of a scleroderma patient. MEFs were derived from knock-in mice in which the 5′SL of the collagen α1(I) gene has been mutated (Parsons et al., submitted). Several independent cell isolates were used throughout the study. All cells were cultured in Dulbecco's modified Eagle's medium supplemented with 10% fetal bovine serum for up to 10 passages. Plasmid constructs and adenovirus preparation. The HA-tagged LARP6 clone and the deletion mutants have been described previously.^16 Adenoviruses were constructed by recloning of the constructs into the pAdCMVTRACK vector, followed by recombination with the pAdEasy vector and amplification, as described previously.^48 Expression of each construct was verified by Western blot analysis. The viruses made express both the full-size test protein and the green fluorescent protein (GFP), which is encoded by an independent transcription unit.^48 Expression of GFP served as control for viral transduction. RT-PCR analysis Total cellular RNA was isolated using an RNA isolation kit (Sigma). RT-PCRs were performed with 100 ng of total RNA or using rTth reverse transcriptase (Boca Scientific, Boca Raton, Fla.). [^32P]dCTP was included in the PCR step to label the products, which were resolved on sequencing gels, as described previously.^8,31,49,50 When RNA from polysomal fractions was analyzed, an equal aliquot of each fraction was used. The number of cycles was adjusted to within the linear range of the reaction. The primers used for RT-PCR were as follows: h-collagen α1(I), 5′ primer […] (SEQ ID NO:3) and 3′ primer […] (SEQ ID NO:4); h-collagen α2(I), 5′ primer […] (SEQ ID NO:5) and 3′ primer […] (SEQ ID NO:6).
Polysomes were fractionated as described previously.^16 Sucrose fractions (0.5 ml) were collected, and total RNA was extracted by phenol/chloroform and isopropanol precipitation. Equivalent amounts of each fraction were analyzed by RT-PCR. Total proteins were extracted from sucrose fractions by trichloroacetic acid precipitation, and equivalent amounts were analyzed by Western blot analysis.
One of the roles of nonmuscle myosin filaments may be to present collagen mRNAs to ribosomes. Therefore, we assessed if the association of collagen mRNAs with nonmuscle myosin is dependent on intact polysomes. […] Only the anti-myosin antibody immunoprecipitated collagen α1(I) and α2(I) mRNAs (lane 1). We then immunoprecipitated nonmuscle myosin from lung fibroblasts treated with cycloheximide or puromycin and analyzed if this can change the pull-down of collagen mRNAs. As control, the association with vimentin was analyzed in the same samples (FIG. 9b). […] The association of collagen mRNAs with vimentin increased after the dissociation of polysomes (lanes 3 and 4). […] To assess if nonmuscle myosin copurifies with polysomes, we fractionated polysomes on sucrose gradients^16 and analyzed for the presence of nonmuscle myosin in the fractions using Western blot analysis (FIG. 9f). […]

human lung fibroblasts = assay: Western blot analysis of cellular and medium collagen polypeptides, lung fibroblasts; type: cell-based; details: 16 h, ML-7 40 μM, blebbistatin 100 μM, vs control cells
Procedure: as §1
Protein concentration was estimated by the Bradford assay, with bovine serum albumin as standard.^51 Western blot analyses of cellular proteins were performed using 50 μg of protein. For Western blot analysis of secreted proteins, equal numbers of cells were seeded, serum-free medium was added to the cells, and incubation continued for 3 h. The medium was collected, and an aliquot was analyzed directly by Western blot analysis. Use of serum free medium in collecting secreted proteins is essential because fetal calf serum contains substantial amounts of collagen and fibronectin.^15,31 For immunostaining, cells were seeded onto glass coverslips. After treatment, the cells were fixed with 4% paraformaldehyde for 30 min at room temperature and permeabilized with 0.5% Triton X-100 in phosphatebuffered saline (PBS) for 10 min. After the cells had been blocked with 10% goat serum/5% bovine serum albumin in PBS for 1 h at room temperature, they were incubated with primary antibody overnight at 4° C., washed, and visualized with AlexaFluor594-conjugated or Cy-2-conjugated secondary antibodies. The cells were mounted using VECTASHIELD mounting medium containing […], 6-diamidino-2-phenylindole (Vector Laboratories), and images were taken by a Leica TCS SP2 AOBS laser confocal microscope equipped with a Chameleon Ti: Sapphire multiphoton laser. Optical sections were processed with LCSLite software.
To assess the role of nonmuscle myosin in collagen synthesis, we disrupted nonmuscle myosin filaments in two different cell types: primary human lung fibroblasts and primary scleroderma skin fibroblasts. These cells are responsible for lung and skin fibrosis. […]

[1] = tested on: LARP6 and nonmuscle myosin; assay: Coimmunoprecipitation of nonmuscle myosin IIB with HA-tagged LARP6; type: cell-based, human; details: lung fibroblasts; ML-7-treated vs control cells
Procedure: ML-7, blebbistatin, cytochalasin B, puromycin, and cycloheximide were purchased from Sigma. ML-7 was used at 40 μM, blebbistatin was used at 100 μM, and cytochalasin B was used at 20 μM. Cells were incubated with the drugs for 16 h before analysis. Puromycin (200 μg/ml) and cycloheximide (100 μg/ml) were added to the cells for 2 h. Human lung fibroblasts have been described previously.16 Scleroderma fibroblasts were purchased from the European Collection of Cell Cultures (cell line BM0070) and derived from the skin of a scleroderma patient. MEFs were derived from knock-in mice in which the 5′SL of the collagen α1(I) gene has been mutated (Parsons et al., submitted). Several independent cell isolates were used throughout the study. All cells were cultured in Dulbecco's modified Eagle's medium supplemented with 10% fetal bovine serum for up to 10 passages. Plasmid constructs and adenovirus preparation. […] [^32P]dCTP was included in the PCR step to label the products, which were resolved on sequencing gels, as described previously.^8,31,49,50 When RNA from polysomal fractions was analyzed, an equal aliquot of each fraction was used. […]
One of the roles of nonmuscle myosin filaments may be to present collagen mRNAs to ribosomes. Therefore, we assessed if the association of collagen mRNAs with nonmuscle myosin is dependent on intact polysomes. […]

O=S(=O)(c1cccc2c(I)cccc12)N1CCCNCC1 [ML-7]
nonmuscle myosin in polysomal fractions (polysomes; 15-45% sucrose gradient, Western blot, puromycin or ML-7 treatment): decrease in the amount of nonmuscle myosin in the heaviest fractions
distribution of collagen α1(I) and α2(I) mRNAs in polysomal fractions (polysomes; ML-7-treated vs control cells, RT-PCR of fractions): a small fraction of collagen α1(I) and α2(I) mRNAs were shifted into nonpolysomal fractions 16 and 17
overall distribution of polysomes (polysomes; ML-7 treatment): did not have an effect
total level of collagen α1(I) and α2(I) mRNAs (polysomes; ML-7 treatment, RT-PCR, sum of all fractions): not significantly affected
secretion of collagen α1(I) polypeptide into the medium (human lung fibroblasts; cytochalasin B 20 μM): found in similar amounts
secretion of collagen α2(I) polypeptide into the medium (human lung fibroblasts; cytochalasin B 20 μM): secreted only in trace amounts
secretion/expression of fibronectin (human lung fibroblasts; cytochalasin B 20 μM): not affected
intracellular level of collagen α1(I) and α2(I) polypeptides (human lung fibroblasts): not significantly affected
myosin IIB pulled down with LARP6 [1]: significantly less
